The record followed here is patent US20250197372A1 (priority 2020, published 2025).

Common to all, as to assay type: biochemical
Experiment [1] deals with T1, recombinant alpha-glucosidase II (murine full-length glucosidase II, alpha and beta subunits, Glu 2) (Mus musculus, UniProt Q8BHN3).
T1 construct: made in house; host or cells: HEK-293T cells transduced with BacMam viruses (75% alpha, 25% beta); protein harvested from culture supernatant
Put plainly: Alpha-glucosidase II assay (4-methylumbelliferyl-alpha-D-pyranoside substrate, fluorescence). The following applies: Glucosidase 2; read-out: Glu2 IC50.

Experiment [2] concerns the target recombinant human GAA (acid alpha-glucosidase) (Homo sapiens, UniProt P10253). The experiment in a line: Acid alpha-glucosidase (GAA) assay (4-methylumbelliferyl-alpha-D-pyranoside substrate, fluorescence). The protocol:
Acid alpha-glucosidase (GAA): To analyze inhibitory effects of a test compound, commercially available recombinant human GAA was incubated with multiple dilutions of test compound for 60 minutes at 37° C. 4-methylumbelliferyl-alpha-D-pyranoside was then introduced to the mixture as the substrate. 1,4-methyllumbelliferone is generated, and after an incubation for 20 minutes at 37° C., the reaction was stopped with the stop solution (0.5M glycine 0.3M NaOH pH 10). 1,4-methyllumbelliferone is detected by fluorescence (excitation at 365 nm, emission at 440 nm). Relative fluorescence compared to untreated enzymatic activity and test compound concentration is plotted as a function of percent inhibition. The IC50 is determined using a 4-PL curve fit as the measure of relative inhibitory activity of each test compound (see Table 3).

The target of experiment [3] is rat maltase (partially purified alpha-glucosidase from intestinal rat powder). Put plainly: Intestinal alpha-glucosidase assay, maltose substrate (Glucose GO Kit). The protocol:
(§1) Intestinal alpha-glucosidases (rat maltase and sucrase): Intestinal alpha-glucosidases act upon 1,4-alpha-glucoside bonds, breaking down disaccharides to glucose. To perform this assay, partially purified alpha-glucosidase from intestinal rat powder was incubated for 60 minutes at 37° C. with multiple dilutions of test compounds. Maltose or Sucrose respectively was then introduced as substrate to the mixture and incubated for 30 minutes at 37° C. The reaction was stopped by a 5-minute incubation at 90° C. and the resultant glucose production is detected using Sigma's Glucose GO Kit. Percent inhibition was then plotted as a function of concentration for each test compound. The IC50 was determined using a 4-PL curve fit and serves as the measure of relative inhibition of each test compound (see Table 3).

The target in experiment [4] is T2, recombinant alpha-glucosidase I (human full-length glucosidase I, Glu 1) (Homo sapiens, UniProt Q13724).
T2 construct: 6-His (C); made in house; host or cells: HEK-293T cells transduced with BacMam virus (virus raised in Sf9)
T2 sequence (Q13724 1-837): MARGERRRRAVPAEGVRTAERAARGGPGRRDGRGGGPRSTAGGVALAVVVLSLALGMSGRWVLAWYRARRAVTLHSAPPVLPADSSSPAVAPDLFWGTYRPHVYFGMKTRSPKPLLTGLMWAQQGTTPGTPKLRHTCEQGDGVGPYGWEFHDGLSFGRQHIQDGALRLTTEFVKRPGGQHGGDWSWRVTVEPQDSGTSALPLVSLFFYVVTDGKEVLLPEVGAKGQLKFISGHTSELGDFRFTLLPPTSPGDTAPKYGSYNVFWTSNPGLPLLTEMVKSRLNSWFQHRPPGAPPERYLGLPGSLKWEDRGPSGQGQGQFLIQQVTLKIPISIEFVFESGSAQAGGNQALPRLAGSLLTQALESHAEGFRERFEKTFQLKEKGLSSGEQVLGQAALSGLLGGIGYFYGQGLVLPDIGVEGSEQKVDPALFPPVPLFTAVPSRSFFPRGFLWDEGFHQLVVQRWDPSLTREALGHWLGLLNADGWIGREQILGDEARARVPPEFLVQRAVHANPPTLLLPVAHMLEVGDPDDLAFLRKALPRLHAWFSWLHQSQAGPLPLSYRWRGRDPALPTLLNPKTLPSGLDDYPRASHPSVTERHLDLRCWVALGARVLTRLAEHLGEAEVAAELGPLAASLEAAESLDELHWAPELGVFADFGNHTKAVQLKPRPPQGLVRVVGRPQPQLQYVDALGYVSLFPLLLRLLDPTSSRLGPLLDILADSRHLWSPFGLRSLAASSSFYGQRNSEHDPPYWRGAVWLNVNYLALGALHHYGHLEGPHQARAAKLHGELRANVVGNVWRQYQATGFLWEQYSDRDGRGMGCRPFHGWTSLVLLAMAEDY
Put plainly: Alpha-glucosidase I assay (Amplex Red glucose detection, synthetic trisaccharide substrate). The following applies: Glucosidase 1; read-out: Glu 1 IC50. From the text: Preparation of Human Full-length Glucosidase I: The amino acid sequence for human full-length glucosidase I was obtained from UniProt (Q13724). […] The entry vector was cloned into Kemp Proteins' BacMam Destination vector and transformed into chemically competent DH10Bac E. coli cells to produce recombinant glucosidase I bacmids. Bacmid isolates were obtained following two rounds of blue-white screening and they were transfected into Sf9 cells cultivated in serum-free medium (Thermo Fisher Scientific). Four days post-transfection the culture supernatants containing virus were harvested and filter sterilized. […] A multiplicity of infection (MOI, ratio of virus to cells) of 4 was selected. Soluble glucosidase I was detected by anti-His western blots in the soluble cell extract following extraction with 1% V/V NP40 for 30 minutes at 0° C. Productions and purifications of glucosidase I were carried out at scales ranging from 1-liter to 10-liters. […] In another example production at the 10-liter scale was performed in stirred-tank bioreactors at 27° C. and 80 rpm with dissolved oxygen level at 50% of oxygen in air and pH between 7.0 and 7.2. Cells were transduced at MOI of 4 and the cell pellet was harvested at 48 hours post-transduction using centrifugation.
The pellet from a 10-liter culture was lysed by resuspending the pellet into 1-liter of 50 mM NaH2PO4—H2O+300 mM NaCl+10 mM Imidazole+1 mM PMSF+1% V/V NP40 pH 8. The suspension was incubated on ice for 30 minutes and clarified at 500×g and 4° C. The supernatant was collected and clarified at 20,000×g for 30 minutes at 4° C. and the supernatant was collected and filtered through a 0.2 micron filter. […] The column was washed with 20 column volumes (CV) of 50 mM NaH2PO4-H2O+300 mM NaCl+10 mM Imidazole pH 8 and eluted using a linear gradient of 0-60% 50 mM NaH2PO4-H2O+300 mM NaCl+500 mM Imidazole pH 8 over 90 minutes. at 5 mL per minute. Fractions (25 mL) were collected and analyzed by SDS PAGE and Western Blot (reducing anti-His). Fractions containing purified glucosidase I were pooled and dialyzed into storage buffer (20 mM Tris+300 mM NaCl+50 mM L-arginine+10 mM EDTA+0.01% V/V Tween 80 pH 7.5). The final material was filter sterilized and stored at 4° C. and the working dilution confirmed by a use-test in the indicated assay conditions prior to use.
Alpha-glucosidase I Assay: The assay was performed by incubating recombinant alpha-glucosidase I enzyme with multiple dilutions of test compounds for 60 minutes at 37° C. A synthetic trisaccharide substrate analog was then introduced to the mixture for 90 minutes at 37° C. The reaction was then stopped with 1.5M Tris (pH 8). In the absence of inhibition, the terminal glucose of the substrate was hydrolyzed by the enzyme. The D-glucose product was detected using Amplex Red Glucose/Glucose Oxidase Assay Kit (Invitrogen) following the manufacturer's directions where glucose oxidase reacts with D-glucose to form D-gluconolactone and H2O2 which then reacts with the Amplex Red reagent to generate a red-fluorescent oxidation product (560 nm, excitation; 590 nm, emission). […] Percent inhibition is plotted as a function of concentration for each compound, compared to control reactions. The IC50 was determined using a 4-PL curve fit and serves as a measure of relative inhibitory activity of each test compound (see Table 3).

Experiment [5] has as its target rat sucrase (partially purified alpha-glucosidase from intestinal rat powder) (Rattus norvegicus, UniProt P23739). Put plainly: Intestinal alpha-glucosidase assay, sucrose substrate (Glucose GO Kit). The protocol: as §1

T1 sequence (O08795 15-521): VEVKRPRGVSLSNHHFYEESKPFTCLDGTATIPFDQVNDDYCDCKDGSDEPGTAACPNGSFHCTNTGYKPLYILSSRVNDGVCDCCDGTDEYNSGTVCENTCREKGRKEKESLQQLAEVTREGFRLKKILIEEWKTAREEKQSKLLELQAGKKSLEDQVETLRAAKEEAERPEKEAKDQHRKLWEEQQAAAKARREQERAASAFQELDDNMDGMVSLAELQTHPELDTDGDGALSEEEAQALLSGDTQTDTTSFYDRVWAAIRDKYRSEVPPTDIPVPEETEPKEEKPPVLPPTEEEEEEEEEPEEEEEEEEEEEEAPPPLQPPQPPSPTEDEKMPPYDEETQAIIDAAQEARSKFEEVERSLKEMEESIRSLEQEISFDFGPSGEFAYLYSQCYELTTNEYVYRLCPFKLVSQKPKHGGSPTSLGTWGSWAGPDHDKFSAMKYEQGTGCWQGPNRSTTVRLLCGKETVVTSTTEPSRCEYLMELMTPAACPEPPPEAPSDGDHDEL
T1 sequence (Q8BHN3 33-944): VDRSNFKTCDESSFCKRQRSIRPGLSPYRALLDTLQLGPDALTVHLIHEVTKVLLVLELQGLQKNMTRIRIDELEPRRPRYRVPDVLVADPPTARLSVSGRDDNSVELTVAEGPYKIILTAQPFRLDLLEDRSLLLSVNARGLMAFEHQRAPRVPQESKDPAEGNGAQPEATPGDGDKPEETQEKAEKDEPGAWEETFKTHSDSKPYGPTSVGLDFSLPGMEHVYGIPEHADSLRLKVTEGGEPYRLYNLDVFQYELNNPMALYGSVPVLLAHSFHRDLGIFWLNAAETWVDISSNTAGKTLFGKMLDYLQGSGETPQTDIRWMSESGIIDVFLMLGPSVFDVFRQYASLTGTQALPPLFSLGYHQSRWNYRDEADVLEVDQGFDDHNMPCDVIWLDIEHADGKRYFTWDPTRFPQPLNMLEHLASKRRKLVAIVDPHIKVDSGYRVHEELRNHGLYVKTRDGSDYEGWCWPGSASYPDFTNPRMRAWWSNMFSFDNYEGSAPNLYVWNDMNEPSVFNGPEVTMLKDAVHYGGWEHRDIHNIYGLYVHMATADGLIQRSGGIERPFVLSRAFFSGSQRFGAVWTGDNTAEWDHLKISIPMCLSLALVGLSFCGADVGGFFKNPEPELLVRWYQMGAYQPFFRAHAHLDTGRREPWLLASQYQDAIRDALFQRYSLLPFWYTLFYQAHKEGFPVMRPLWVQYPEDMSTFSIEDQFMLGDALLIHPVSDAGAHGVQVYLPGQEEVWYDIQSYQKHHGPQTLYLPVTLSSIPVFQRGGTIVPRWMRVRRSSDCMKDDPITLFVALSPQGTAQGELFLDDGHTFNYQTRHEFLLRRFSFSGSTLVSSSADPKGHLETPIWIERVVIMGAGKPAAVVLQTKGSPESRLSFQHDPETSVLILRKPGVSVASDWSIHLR
rat sucrase (partially purified alpha-glucosidase from intestinal rat powder), sequence (P23739 whole entry): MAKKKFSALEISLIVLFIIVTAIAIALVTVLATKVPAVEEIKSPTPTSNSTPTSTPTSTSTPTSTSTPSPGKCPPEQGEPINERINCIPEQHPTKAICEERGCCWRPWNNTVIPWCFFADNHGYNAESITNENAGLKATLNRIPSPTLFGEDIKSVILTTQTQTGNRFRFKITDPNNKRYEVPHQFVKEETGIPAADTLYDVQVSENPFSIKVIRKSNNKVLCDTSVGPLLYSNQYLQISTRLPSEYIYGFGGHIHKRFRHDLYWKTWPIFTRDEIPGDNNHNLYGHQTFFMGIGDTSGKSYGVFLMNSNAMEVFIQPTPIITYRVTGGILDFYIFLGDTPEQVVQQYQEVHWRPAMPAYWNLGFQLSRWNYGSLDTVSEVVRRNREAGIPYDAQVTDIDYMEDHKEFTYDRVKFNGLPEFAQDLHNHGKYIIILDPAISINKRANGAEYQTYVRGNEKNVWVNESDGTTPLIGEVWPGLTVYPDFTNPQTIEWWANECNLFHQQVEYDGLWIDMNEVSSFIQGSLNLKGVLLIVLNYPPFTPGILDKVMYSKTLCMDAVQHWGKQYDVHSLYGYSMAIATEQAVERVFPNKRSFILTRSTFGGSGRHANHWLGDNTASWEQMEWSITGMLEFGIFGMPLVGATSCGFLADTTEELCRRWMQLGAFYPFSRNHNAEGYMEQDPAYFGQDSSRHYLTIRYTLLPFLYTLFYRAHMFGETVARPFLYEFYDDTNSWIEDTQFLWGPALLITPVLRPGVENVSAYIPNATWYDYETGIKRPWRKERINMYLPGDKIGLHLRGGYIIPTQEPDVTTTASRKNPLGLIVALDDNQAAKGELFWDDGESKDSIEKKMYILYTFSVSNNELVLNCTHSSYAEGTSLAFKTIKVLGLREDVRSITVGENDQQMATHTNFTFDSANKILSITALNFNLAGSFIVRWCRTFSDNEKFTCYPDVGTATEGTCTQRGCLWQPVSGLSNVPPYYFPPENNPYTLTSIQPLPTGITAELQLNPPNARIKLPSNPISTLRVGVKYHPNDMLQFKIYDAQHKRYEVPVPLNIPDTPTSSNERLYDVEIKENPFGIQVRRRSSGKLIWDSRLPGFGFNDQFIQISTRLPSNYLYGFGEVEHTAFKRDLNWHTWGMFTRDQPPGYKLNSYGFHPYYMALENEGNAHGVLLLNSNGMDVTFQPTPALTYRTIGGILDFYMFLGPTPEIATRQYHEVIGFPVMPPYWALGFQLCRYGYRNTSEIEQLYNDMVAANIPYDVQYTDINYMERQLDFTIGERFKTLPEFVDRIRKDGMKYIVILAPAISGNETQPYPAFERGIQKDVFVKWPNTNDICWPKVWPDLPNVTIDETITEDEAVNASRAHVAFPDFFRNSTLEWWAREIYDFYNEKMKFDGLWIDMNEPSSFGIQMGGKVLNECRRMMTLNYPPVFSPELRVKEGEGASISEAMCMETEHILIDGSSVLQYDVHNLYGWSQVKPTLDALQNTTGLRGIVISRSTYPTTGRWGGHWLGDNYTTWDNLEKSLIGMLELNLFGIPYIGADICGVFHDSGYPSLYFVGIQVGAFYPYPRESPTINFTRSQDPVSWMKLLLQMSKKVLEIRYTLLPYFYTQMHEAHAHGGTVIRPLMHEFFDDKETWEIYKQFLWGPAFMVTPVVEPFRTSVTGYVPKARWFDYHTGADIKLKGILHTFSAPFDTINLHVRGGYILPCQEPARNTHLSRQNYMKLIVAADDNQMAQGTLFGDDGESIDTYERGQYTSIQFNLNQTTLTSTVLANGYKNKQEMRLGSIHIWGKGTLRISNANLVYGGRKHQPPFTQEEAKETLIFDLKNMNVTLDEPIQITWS

`OC[C@@H]1[C@@H](O)[C@H](O)[C@@H](O)CN1Cc1ccc(CNc2ccc(-c3cccnn3)cc2)cc1` [Compound 1095, (2R,3R,4R,5S)-2-(hydroxymethyl)-1-{[4-({[4-(pyridazin-3-yl)phenyl]amino}methyl)phenyl]methyl}piperidine-3,4,5-triol]: the IC50 in experiment [1] came to 657 nM; in experiment [2] it was 243 nM; in experiment [3] it was 11 nM; in experiment [4], 12 nM; in experiment [5], 13 nM.

Turning to `O=[N+]([O-])c1cc(CN2CCCO2)ccc1NCc1ccc(CN2C[C@H](O)[C@@H](O)[C@H](O)[C@H]2CO)cc1` [Compound 1098], the IC50 in experiment [1] turned out to be 83 nM; in experiment [2], 175 nM; in experiment [3], 13 nM; in experiment [4], 23 nM; in experiment [5] it was 40 nM.

`[N-]=[N+]=Nc1ccc(NCC2COC(CN3C[C@H](O)[C@@H](O)[C@H](O)[C@H]3CO)CO2)c([N+](=O)[O-])c1` (stereo partly drawn) [Compound 1280, (2R,3R,4R,5S)-1-[(5-{[(4-azido-2-nitrophenyl)amino]methyl}-1,4-dioxan-2-yl)methyl]-2-(hydroxymethyl)piperidine-3,4,5-triol]: the IC50 came out at 194 nM in experiment [1] and 1460 nM in experiment [4].
